The test system of data set [1] is mice having kidney damage induced by Polymyxin E. Nature of the data set: Mouse model of nephrotoxicity by Polymyxin E: urea nitrogen and creatinine in serum. Format: in vivo, C57BL/6 mice. As for the experimental part: (§1) C57BL/6 mice, male, 8-week-old, weighing 20-22 g, purchased from Vital River Laboratory Animal Technology Co., Ltd.
(§2) The mice were housed in the National Center for Veterinary Drug Safety Evaluation of China Agricultural University, fed with routine pelleted feed and free access to water, at a controlled temperature of (22±2)° C., and a humidity of (50±10) %. Adaptive housing was performed for 1 week before experiments.
(§3) […] were randomly divided into 6 groups (n=8 in each group), as follows:
(§4) Control group: the mice were intraperitoneally injected with an equivalent amount of normal saline.
(§5) Polymyxin E model group: the mice were intraperitoneally injected with Polymyxin E
(§6) at a single dose of 10 mg/kg body weight, twice a day, with an interval of 8 hours between doses; i.e., the mice were administered with Polymyxin E in 20 mg/kg body weight per day.
(§7) SU3327 control group: the mice were intraperitoneally injected with dissolved SU3327 at a single dose of 10 mg/kg body weight, once a day for 10 straight days; i.e., the mice were administered with SU3327 in 10 mg/kg body weight per day.
(§8) SU3327 high-dose protection group: the mice were intraperitoneally injected with SU3327 at a single dose of 10 mg/kg body weight, concurrently with Polymyxin E in 10 mg/kg, twice, with an interval of 8 hours between doses; i.e., the mice were administered with SU3327 in 10 mg/kg body weight per day, concurrently with Polymyxin E in 20 mg/kg body weight per day.
(§9) SU3327 medium-dose protection group: the mice were intraperitoneally injected with SU3327 at a single dose of 5 mg/kg body weight, concurrently with Polymyxin E in […], twice, with an interval of 8 hours between doses; i.e., the mice were administered with SU3327 in 5 mg/kg body weight per day, concurrently with Polymyxin E in 20 mg/kg body weight per day.
SU3327 low-dose protection group: the mice were intraperitoneally injected with SU3327 at a single dose of 2.5 mg/kg body weight, concurrently with Polymyxin E in 10 mg/kg, twice, with an interval of 8 hours between doses; i.e., the mice were administered with SU3327 in 2.5 mg/kg body weight per day, concurrently with Polymyxin E in 20 mg/kg body weight per day. […]
The blood samples collected from the mice were centrifuged at 3000 rpm for 10 min, and the supernatant was aspirated. The changes of urea nitrogen in serum and creatinine in serum were detected by an automatic biochemical detector.

For a further data set, the target named is p38α (Homo sapiens, UniProt Q16539). Particulars: cited from earlier work.
Sequence of p38α (Q16539 whole entry): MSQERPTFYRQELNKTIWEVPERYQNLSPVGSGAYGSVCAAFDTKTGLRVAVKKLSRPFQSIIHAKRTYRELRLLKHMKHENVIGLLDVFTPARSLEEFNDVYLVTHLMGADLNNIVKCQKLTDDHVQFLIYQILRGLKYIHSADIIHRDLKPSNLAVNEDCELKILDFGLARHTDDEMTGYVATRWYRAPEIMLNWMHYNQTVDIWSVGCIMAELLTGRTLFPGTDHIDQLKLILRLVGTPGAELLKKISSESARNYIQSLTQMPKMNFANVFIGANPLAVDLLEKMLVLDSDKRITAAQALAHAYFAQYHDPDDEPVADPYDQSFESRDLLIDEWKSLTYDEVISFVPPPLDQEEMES
The next data set deals with Akt kinases. The following applies: cited from earlier work.
The next data set concerns Clostridium difficile. The following applies: laboratory tests, Collins group, Cell 2020; cited from earlier work.
Another data set relates to JNK. Particulars: read-out: IC50 as JNK inhibitor; cited from earlier work.
The test system of the next data set is E. coli. The following applies: laboratory tests, Collins group, Cell 2020; cited from earlier work.
In data set [2] the test system is Mycobacterium tuberculosis. The following applies: laboratory tests, Collins group, Cell 2020; cited from earlier work.
The next data set has as its system HEK293 cells. The data set is described as follows: Cell viability test by CCK-8 method. It counts as cell-based, Human. As for the experimental part: Human Embryonic Kidney cells (HEK293), preserved by National Center for Veterinary Drug Safety Evaluation of China Agricultural University.
Cytotoxicity was determined by a CCK-8 method. After HEK293 cells (5×10^4 cells/well) were seeded onto 96-well tissue culture plates and cultured for 24 hours, the cells were treated with SU3327 or Polymyxin E alone or in combination, with SU3327 in a final concentration of 5 μM, 2.5 μM, 1.25 μM and 0.625 μM; Polymyxin E in a final concentration of 2 mM; combination groups of SU3327 and Polymyxin E: Polymyxin E (2 mM)+SU3327 (5 μM), Polymyxin E (2 mM)+SU3327 (2.5 μM), Polymyxin E (2 mM)+SU3327 (1.25 μM), Polymyxin E (2 mM)+SU3327 (0.625 μM), and control group (Control) 0.1% DMSO. Following continued culture for 24 h, a CCK-8 kit was used to detect the changes in cell viability.

For the next data set, the system named is JNK and JIP. The following applies: read-out: IC50 for inhibition of protein interaction between JNK and JIP; cited from earlier work.
Data set [3] concerns mice having kidney damage induced by Polymyxin E. Nature of the data set: Mouse model of nephrotoxicity by Polymyxin E: kidney histopathology and semiquantitative scoring (SQS). It counts as in vivo, C57BL/6 mice. The following applies: for pathological damage score: 10 days, P<0.001. As for the experimental part: as §1, §2, §3, §4, §5, §6, §7, §8, §9
SU3327 low-dose protection group: the mice were intraperitoneally injected with SU3327 at a single dose of 2.5 mg/kg body weight, concurrently with Polymyxin E in 10 mg/kg, twice, with an interval of 8 hours between doses; i.e., the mice were administered with SU3327 in 2.5 mg/kg body weight per day, concurrently with Polymyxin E in 20 mg/kg body weight per day.
In the experiments above, reference was made to the previously published literature by the inventors for the method of establishing the mouse model of nephrotoxicity by Polymyxin E (Dai C, Tang S, Wang Y, Velkov T, Xiao X. Baicalein acts as a nephroprotectant that ameliorates colistin-induced nephrotoxicity by activating the antioxidant defence mechanism of the kidneys and down-regulating the inflammatory response. J Antimicrob Chemother. 2017 Sep. 1; 72(9):2562-2569).
Following dosing by injection for 10 straight days, the mice were euthanized by intraperitoneal injection with an overdose of sodium pentobarbital (80 mg/kg) 24 hours post the last dosing, and blood and kidney tissues were collected quickly, the serum and tissues were processed as follows.
The isolated, fresh kidney tissues were washed with normal saline, sampled and fixed in 10% neutral formalin for 48 h, after being flushed with water, and then dehydrated, cleared, immersed in paraffin, embedded, sectioned and stained in sequence. The pathological changes in kidney tissues were observed and photographed under a microscope. HE staining: the paraffin sections were taken, and placed in an oven at a constant temperature of 60° C. for 30 min; followed by paraffin removal and dehydration with ethanol, and immersing with double distilled water; hematoxylin staining for 10 min, rinsing with tap water, and differentiation with acid alcohol; flushing with running water until the sections turned blue; 95% ethanol for 30 s, alcoholic eosin staining for 30 s, 95% ethanol for 30 s, and 100% ethanol for 30 s; clearing with Xylene, and sealing with neutral gum.
Following HE staining, damages to the renal tissues were evaluated using a semiquantitative scoring (SQS). […]

The conditions of data set [4]: in vivo; cited from earlier work.
Where [5] appears, read: SU3327 at 2.5, 5 and 10 mg/kg i.p. in combination with Polymyxin E 20 mg/kg per day, 10 days.
The mark [6] stands for this setting: Polymyxin E 20 mg/kg per day i.p. for 10 straight days.

One may read the IC50 as the point on the concentration scale where inhibition reaches its midpoint. As usually defined, the cell viability is a per cent measure of how many cells are alive, often set against a control. Regarding `Nc1nnc(Sc2ncc([N+](=O)[O-])s2)s1` [SU3327], in [1] (setting [5]), the “level of creatinine in the serum compared to Polymyxin E model group” value is reported as “significantly lowered”. Moreover, the “level of urea nitrogen in the serum compared to Polymyxin E model group” value in [1] (setting [5]) is given as “significantly lowered”. Besides, at p38α, the “activity for p38α” value is listed as “low activity”. Further, the “activity for Akt kinases” value in the data set on Akt kinases is on record as “low activity”. Besides, the “killing of Clostridium difficile” value with Clostridium difficile is given as “killed”. For the same compound, the concentration for half-maximal inhibition (IC50) in the data set on JNK was 700 nM; in the data set on JNK and JIP, 239 nM. Besides, the “growth of E. coli” value with E. coli is “effectively prevented the growth”. In data set [2], the “killing of Mycobacterium tuberculosis” value is listed as “killed”. Also, the cell viability with HEK293 cells (SU3327 2.5 μM in combination with Polymyxin E 2 mM, 24 h) came out at 68.5%. Besides, the “cell viability compared to treatment group with polymyxin alone” value in the data set with HEK293 cells (SU3327 (5-0.625 μM) in combination with Polymyxin E 2 mM, 24 h) is “increased to some extent”. In addition, the “cell viability compared with control group” value in the data set on HEK293 cells (SU3327 alone in 5 μM, 2.5 μM, 1.25 μM and 0.625 μM, 24 h) is on record as “significantly changed”. The pathological damage score in data set [3] (SU3327 2.5 mg/kg i.p. in combination with Polymyxin E 20 mg/kg per day) is reported as 1; in data set [3] (SU3327 5 mg/kg i.p. in combination with Polymyxin E 20 mg/kg per day) it was 0.75; in data set [3] (SU3327 10 mg/kg i.p. in combination with Polymyxin E 20 mg/kg per day), 0.5. Besides, the “pathological changes in renal tubules” value in data set [3] (SU3327 in combination with Polymyxin E) is on record as “remarkably improved”.
Polymyxin E: in [1] (setting [6]), the “level of BUN in the serum compared to control group” value is on record as “significantly up-regulated” and the “level of CRE in the serum compared to control group” value is recorded as “significantly up-regulated”. In addition, in data set [4], the “clinical incidence of nephrotoxicity” value is on record as “up to 60%”, the “clinical incidence of neurotoxicity” value is listed as “about 7%” and the “clinical incidence of symptoms from mild peripheral neurotoxicity” value is not above 100%. In the data set with HEK293 cells (polymyxin alone 2 mM, 24 hours), the cell viability is recorded as 55.3%. Further, in data set [3] (setting [6]), the “average of pathological semiquantitative score” value is 3 and the “kidney pathological damages (epithelial cell shedding, necrosis, tubular casts)” value is “obvious pathological damages”.

These data come from patent publication US20250205208A1, “USE OF SU3327 IN PREPARATION OF MEDICAMENT FOR REDUCING CYTOTOXICITY AND NEPHROTOXICITY OF POLYMYXIN” (XIAMEN HANLIXIN PHARMACEUTICAL CO., LTD., priority 2023, published 2025).
